Experimental data published in US20220378699A1, “SELF-E[…] EXTRACT” (ISRAEL PLASTICS AND RUBBER CENTER LTD., priority 2019, published 2022).
Where two headings read alike, the source gives them in different places.

Assay: In-vivo evaluation: phytocannabinoid serum concentrations after oral administration
Parameters: species or system mice (C57BL/6 J)
Conditions: male, C57BL/6J, mouse, mice, 5 mg CBD/kg, 90 min after dosing, average ± standard error
Protocol: Animal studies were performed in compliance with the Guide for the Care and Use of Laboratory Animals established by the National Institutes of Health. All procedures and protocols were approved by the Technion Administrative Panel of Laboratory Animal Care (#:IL_050-05-2018).
Subjects 10 adult male mice (C57BL/6 J; The Jackson Laboratory), weighing 20-30 gr were housed in standard laboratory conditions with controlled temperature, humidity, light/dark cycle, ad libitum access to water and regular diet. The experiment was performed at noon, during the light cycle.
CME tea was prepared by pouring 13.3 ml of hot di-ionized water (80° c) over 20 mg of dry SE particles, resulting in CME concentration of […]. The mixture was then genteelly stirred until complete dissolution was observed.
The control solution was prepared by dissolving CME in a solution of 1:1:18 EtOH: Cremophor: PBS. First, 8.5 mg of CME were dissolved in 0.5 ml of EtOH. After that 0.5 ml of Cremophor was added and the mixture was stirred for one hour. Finally, 9 ml of PBS were added, and the mixture was stirred for 30 minutes. Both CME tea and control solution concentrations were calculated to match a dose of 5 mg CBD/kg for a volume intake of 200 μl and an average mouse weight of 25 gr.
For both the control group (5 mice) and the experiment group (5 mice) a dose of 200 μl was orally administered via direct injection to the stomach.
The mice were sacrificed 1.5 hours after oral administration. Blood samples were immediately taken and stored for further examination.
A sample of 600 μl of an extraction solution containing 0.1% v/v acetic acid in a methanol: acetonitrile 1:1 mixture, spiked with 20 ng/ml deuterated internal standards (ISs) was added to 200 μl serum sample. Samples were than vortexed and centrifuged in order to enable protein and cell precipitation. 3 ml of 0.1% v/v acetic acid in water was then added to the supernatants and the sample was loaded onto Agela Cleanert C8 solid phase extraction (SPE) cartridges (500 mg of sorbent, 50 μm particle size). Elution of phytocannabinoids from the columns was done using 2 ml of 0.1% v/v acetic acid in methanol, followed by an evaporation and reconstituted in 100 μl ethanol.
Cannabinoid quantitation was performed as described by P. Berman et al. (Berman et al., 2018).
Phytocannabinoids serum concentrations were evaluated 90 min after oral administration to mice, as detailed above. The control group included a Cremophor EL (castor oil) based emulsion formulation, widely used for its potent solubilizing effect (Comelli F, Giagnoni G, Bettoni I, Colleoni M, 2008). The study group included the F2 tea formulation prepared at 0.62 mg CBD/mL, with both formulations providing 5mg/kg of CBD per body weight.

[1] = CME in Cremophor EL emulsion (1:1:18 EtOH:Cremophor:PBS), read-out: Serum concentration, Control group
[2] = po, F2 tea formulation, read-out: Serum Concentration, Experiment Group

SMILES | concentration at 90 min [1] | concentration at 90 min [2]
CCCCCc1cc(O)c2c(c1)OC(C)(CCC=C(C)C)C=C2 (centres unmarked) [CBC, cannabichromene] | 247 ± 48 ng/mL | 210 ± 72 ng/mL
CCCCCc1cc(O)c2c(c1)OC(C)(C)c1ccc(C)cc1-2 [CBN, cannabinol] | 100 ± 5 ng/mL | 125 ± 12 ng/mL
C=C(C)[C@@H]1CCC(C)=C[C@H]1c1c(O)cc(CCCCC)cc1O [CBD, cannabidiol] | 3100 ± 970 ng/mL | 1500 ± 130 ng/mL
CCCCCc1cc(O)c2c(c1)OC(C)(C)[C@@H]1CCC(C)=C[C@@H]21 [THC, (—)-trans-Δ^9-tetrahydrocannabinol] | 343 ± 90 ng/mL | 115 ± 15 ng/mL
